Our source for the Kd values is article PMC2917589 (Nature chemical biology, 2010).

Usually Kd stands for the constant that tells how readily two partners part at equilibrium. High values mean lower affinity, low ones higher affinity.

In experiment [1] the target is myosin V (S1) 1IQ construct (Gallus gallus, UniProt Q02440). The class given is binding.
Experiment [2] deals with myosin V (S1) 6IQ construct (Gallus gallus, UniProt Q02440). The class given is binding.
myosin V (S1) 6IQ construct, sequence (Q02440 whole entry, looked up): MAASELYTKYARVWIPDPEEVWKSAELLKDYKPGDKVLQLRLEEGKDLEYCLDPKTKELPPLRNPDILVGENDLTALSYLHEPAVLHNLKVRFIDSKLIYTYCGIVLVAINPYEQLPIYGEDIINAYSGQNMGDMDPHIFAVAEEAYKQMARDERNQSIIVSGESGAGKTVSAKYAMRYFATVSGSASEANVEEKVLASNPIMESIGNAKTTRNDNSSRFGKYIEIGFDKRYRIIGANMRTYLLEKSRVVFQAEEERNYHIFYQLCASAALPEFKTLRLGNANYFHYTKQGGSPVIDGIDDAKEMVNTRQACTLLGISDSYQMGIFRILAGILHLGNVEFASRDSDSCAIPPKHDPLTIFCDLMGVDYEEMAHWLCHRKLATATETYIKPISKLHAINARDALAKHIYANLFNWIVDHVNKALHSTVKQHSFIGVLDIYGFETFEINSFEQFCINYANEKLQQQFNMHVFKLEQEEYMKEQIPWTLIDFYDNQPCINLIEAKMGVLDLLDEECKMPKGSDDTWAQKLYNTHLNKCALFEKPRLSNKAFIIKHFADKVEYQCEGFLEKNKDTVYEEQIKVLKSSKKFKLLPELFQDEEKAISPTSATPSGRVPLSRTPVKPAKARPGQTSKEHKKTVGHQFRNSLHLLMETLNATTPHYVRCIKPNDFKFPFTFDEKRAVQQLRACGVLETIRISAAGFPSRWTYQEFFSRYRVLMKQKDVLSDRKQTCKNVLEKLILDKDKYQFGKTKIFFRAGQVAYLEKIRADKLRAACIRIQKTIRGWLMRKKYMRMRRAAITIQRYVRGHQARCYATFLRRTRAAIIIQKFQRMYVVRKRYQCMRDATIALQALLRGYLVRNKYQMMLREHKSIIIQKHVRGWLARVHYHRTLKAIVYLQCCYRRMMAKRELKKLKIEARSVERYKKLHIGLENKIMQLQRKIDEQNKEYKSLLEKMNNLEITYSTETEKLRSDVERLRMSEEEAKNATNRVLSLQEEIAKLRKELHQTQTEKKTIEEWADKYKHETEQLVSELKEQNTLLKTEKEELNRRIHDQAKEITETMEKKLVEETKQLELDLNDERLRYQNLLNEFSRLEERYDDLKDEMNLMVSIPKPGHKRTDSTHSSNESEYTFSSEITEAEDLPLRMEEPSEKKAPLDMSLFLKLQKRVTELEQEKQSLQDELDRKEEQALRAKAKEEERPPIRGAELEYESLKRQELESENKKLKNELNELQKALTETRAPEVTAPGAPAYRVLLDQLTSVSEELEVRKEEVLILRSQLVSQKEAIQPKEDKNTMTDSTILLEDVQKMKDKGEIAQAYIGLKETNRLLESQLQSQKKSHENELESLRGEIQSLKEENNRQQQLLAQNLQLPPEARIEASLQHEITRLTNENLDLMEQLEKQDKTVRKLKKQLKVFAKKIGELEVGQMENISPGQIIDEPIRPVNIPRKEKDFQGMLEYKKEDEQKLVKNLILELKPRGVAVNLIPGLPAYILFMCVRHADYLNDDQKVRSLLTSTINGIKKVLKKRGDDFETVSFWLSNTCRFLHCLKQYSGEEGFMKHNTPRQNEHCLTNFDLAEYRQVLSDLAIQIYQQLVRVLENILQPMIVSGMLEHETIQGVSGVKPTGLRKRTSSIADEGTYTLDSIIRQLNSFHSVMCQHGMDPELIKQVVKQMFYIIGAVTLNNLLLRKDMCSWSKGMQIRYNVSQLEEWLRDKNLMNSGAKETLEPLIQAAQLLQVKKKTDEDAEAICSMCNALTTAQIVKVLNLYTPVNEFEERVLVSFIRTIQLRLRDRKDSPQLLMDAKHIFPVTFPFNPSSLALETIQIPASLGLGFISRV

myosin V (S1) 1IQ construct, sequence (Q02440 whole entry, looked up): as above

`Nc1ncnc2c1ncn2[C@@H]1O[C@H](COP(=O)(O)OP(=O)(O)O)[C@@H](O)[C@H]1O` [ADP]: the Kd in experiment [1] is 2.4 ± 1.7 µM; in experiment [2], roughly 1 µM.
